We go through 4 molecules from ChEMBL document CHEMBL4665754, “Discovery of a coumarin derivative as Nrf2 activator mitigating oxidative stress and fibrosis in mesangial cells under high glucose” (Bioorg Med Chem Lett, 2020).

The source made the active and inactive calls. No cut-off for these calls is given here.

The target of series [1] is T1, Keap1/Nrf2 (Homo sapiens) (UniProt Q16236+Q14145). Put plainly: Disruption of interaction between Nrf2/Keap1 (unknown origin) in mesangial cells assessed as reduction in high glucose-induced intracellular MDA level at 10 uM. Particulars: Mesangial cell. It counts as cell-based.
T1 sequence (Q14145 whole entry, looked up, one chain of several): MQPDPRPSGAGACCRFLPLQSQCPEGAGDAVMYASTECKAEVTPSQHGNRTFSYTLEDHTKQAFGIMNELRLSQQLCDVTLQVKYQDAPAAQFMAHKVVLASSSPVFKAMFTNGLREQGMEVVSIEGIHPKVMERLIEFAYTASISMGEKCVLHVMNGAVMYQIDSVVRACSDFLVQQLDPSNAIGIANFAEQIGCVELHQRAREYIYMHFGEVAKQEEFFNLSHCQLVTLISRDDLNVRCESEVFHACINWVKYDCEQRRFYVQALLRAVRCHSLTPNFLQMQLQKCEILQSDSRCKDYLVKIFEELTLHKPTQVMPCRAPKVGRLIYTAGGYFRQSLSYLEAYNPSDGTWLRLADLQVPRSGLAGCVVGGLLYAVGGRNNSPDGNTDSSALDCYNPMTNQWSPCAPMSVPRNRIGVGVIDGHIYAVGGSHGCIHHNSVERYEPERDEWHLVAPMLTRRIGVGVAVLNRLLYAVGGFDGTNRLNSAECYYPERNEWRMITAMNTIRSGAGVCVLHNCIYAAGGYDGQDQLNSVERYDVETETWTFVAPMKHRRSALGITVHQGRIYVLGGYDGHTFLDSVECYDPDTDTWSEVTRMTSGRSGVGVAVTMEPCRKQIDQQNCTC
The test system of series [2] is Mesangial cell. Put plainly: Inhibition of glucose-induced cell proliferation in Mesangial cell (unknown origin) at 10 uM by CCK8 assay. It counts as functional, tissue-based. (Tetrazolium dyes change colour on reduction, which living cells bring about.)
Series [3] deals with T1, Keap1/Nrf2 (Homo sapiens). Kind of series: Disruption of interaction between Nrf2/Keap1 (unknown origin) in mesangial cells assessed as reduction in high glucose-induced collagen IV secretion at 10 uM by ELISA. It counts as cell-based. Particulars: Mesangial cell. For orientation: ELISA stands for enzyme-linked immunosorbent assay.
The nature of series [4]: Cytotoxicity against Mesangial cell (unknown origin) at 0.01 to 100 uM by CCK8 assay. Particulars: dose 0.01-100 µM. It counts as tissue-based.
The target of series [5] is T2, Nuclear factor erythroid 2-related factor 2 (Homo sapiens) (UniProt Q16236).
T2 sequence (whole entry): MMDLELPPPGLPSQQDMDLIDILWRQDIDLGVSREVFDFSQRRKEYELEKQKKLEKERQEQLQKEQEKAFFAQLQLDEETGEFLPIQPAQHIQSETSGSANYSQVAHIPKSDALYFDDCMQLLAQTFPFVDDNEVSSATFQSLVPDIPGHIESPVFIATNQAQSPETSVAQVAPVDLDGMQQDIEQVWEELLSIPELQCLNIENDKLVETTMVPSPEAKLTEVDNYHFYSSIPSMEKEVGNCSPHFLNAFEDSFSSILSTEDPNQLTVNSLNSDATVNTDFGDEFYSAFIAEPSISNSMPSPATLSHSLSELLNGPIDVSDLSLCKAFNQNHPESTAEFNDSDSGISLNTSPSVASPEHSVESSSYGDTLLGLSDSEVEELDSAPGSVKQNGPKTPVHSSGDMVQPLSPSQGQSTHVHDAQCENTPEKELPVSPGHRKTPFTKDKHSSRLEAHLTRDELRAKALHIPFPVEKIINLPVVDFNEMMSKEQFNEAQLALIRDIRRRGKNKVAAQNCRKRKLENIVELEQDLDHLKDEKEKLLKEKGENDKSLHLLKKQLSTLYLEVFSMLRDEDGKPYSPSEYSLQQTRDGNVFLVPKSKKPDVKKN
Put plainly: Activation of Nrf2 (unknown origin) in mesangial cell assessed as strong red fluorescence at 5 and 10 uM in presence of high glucose by immunofluorescence staining based assay. Particulars: dose microM 5-10. Type of series: tissue-based.

Series [6] has as its target T1, Keap1/Nrf2 (Homo sapiens). Kind of series: Disruption of interaction between Nrf2/Keap1 (unknown origin) in mesangial cell assessed as decrease in Keap1 immunoprecipitate at 10 uM in presence of high glucose by Co-immunoprecipitation assay. It counts as tissue-based.
Series [7] addresses T2, Nuclear factor erythroid 2-related factor 2 (Homo sapiens). Kind of series: Activation of Nrf2 (unknown origin) in mesangial cell at 5 and 10 uM in presence of high glucose by Western blot based densitometric assay. Type of series: tissue-based. Particulars: dose microM 5-10.
Series [8] deals with T1, Keap1/Nrf2 (Homo sapiens). Put plainly: Disruption of interaction between Nrf2/Keap1 (unknown origin) in mesangial cells assessed as reduction in high glucose-induced intracellular MDA level at 5 to 10 uM. It counts as cell-based. Particulars: Mesangial cell, dose microM 5-10.
Series [9] deals with T2, Nuclear factor erythroid 2-related factor 2 (Homo sapiens). Put plainly: Activation of Nrf2 (unknown origin) in mesangial cell assessed as increase in transcription ability of Nrf2 binding to ARE by measuring increase luciferase activity at 5 to 10 uM in presence of high glucose by luciferase reporter gene assay. Type of series: tissue-based. Particulars: dose microM 5-10. On the technique in general: Reporter assays use an easily measured gene product as a stand-in for the process of interest.

Series [10] has as its system Mesangial cell. Put plainly: Inhibition of glucose-induced cell proliferation in Mesangial cell (unknown origin) at 5 and 10 uM by CCK8 assay. It counts as functional, tissue-based. Particulars: dose microM 5-10.
Series [11] concerns the target T1, Keap1/Nrf2 (Homo sapiens). Kind of series: Disruption of interaction between Nrf2/Keap1 (unknown origin) in mesangial cells assessed as reduction in high glucose-induced fibronectin secretion at 10 uM in presence of 10 uM ML385 by ELISA. It counts as cell-based. Particulars: Mesangial cell.
Series [12] addresses T1, Keap1/Nrf2 (Homo sapiens). Put plainly: Disruption of interaction between Nrf2/Keap1 (unknown origin) in mesangial cells assessed as reduction in high glucose-induced fibronectin secretion at 5 to 10 uM by ELISA. It counts as cell-based. Particulars: Mesangial cell, dose microM 5-10.
Series [13] concerns the target T2, Nuclear factor erythroid 2-related factor 2 (Homo sapiens). Put plainly: Activation of Nrf2 (unknown origin) in mesangial cell assessed as increase in translocation of Nrf2 into nuclei from cytosol at 5 to 10 uM in presence of high glucose by Western blot based densitometric assay. It counts as tissue-based. Particulars: dose microM 5-10.
Series [14] concerns the target T1, Keap1/Nrf2 (Homo sapiens). Kind of series: Disruption of interaction between Nrf2/Keap1 (unknown origin) in mesangial cell assessed as increase of Nrf2 immunoprecipitate at 10 uM in presence of high glucose by Co-immunoprecipitation assay. Type of series: tissue-based.
Series [15] concerns the target T1, Keap1/Nrf2 (Homo sapiens). Put plainly: Disruption of interaction between Nrf2/Keap1 (unknown origin) in mesangial cells assessed as reduction in high glucose-induced intracellular ROS production at 5 to 10 uM by DCFH-DA assay. Type of series: cell-based. Particulars: Mesangial cell, dose microM 5-10.
The target in series [16] is T1, Keap1/Nrf2 (Homo sapiens). Kind of series: Disruption of interaction between Nrf2/Keap1 (unknown origin) in mesangial cells assessed as reduction in high glucose-induced intracellular MDA level at 10 uM in presence of 10 uM ML385. It counts as cell-based. Particulars: Mesangial cell.
The target of series [17] is T1, Keap1/Nrf2 (Homo sapiens). Kind of series: Disruption of interaction between Nrf2/Keap1 (unknown origin) in mesangial cells assessed as reduction in high glucose-induced collagen IV secretion at 10 uM in presence of 10 uM ML385 by ELISA. Type of series: cell-based. Particulars: Mesangial cell.
Series [18] addresses T1, Keap1/Nrf2 (Homo sapiens). Kind of series: Disruption of interaction between Nrf2/Keap1 (unknown origin) in mesangial cells assessed as reduction in high glucose-induced intracellular ROS production at 10 uM in presence of 10 uM ML385 by DCFH-DA assay. It counts as cell-based. Particulars: Mesangial cell.
Series [19] concerns the target T1, Keap1/Nrf2 (Homo sapiens). Put plainly: Disruption of interaction between Nrf2/Keap1 (unknown origin) in mesangial cells assessed as reduction in high glucose-induced collagen IV secretion at 5 to 10 uM by ELISA. Type of series: cell-based. Particulars: Mesangial cell, dose microM 5-10.

For the molecule `O=c1ccc2ccc(Oc3cc4ccc(O)cc4oc3=O)cc2o1` [EDGEWORIN], the inhibition entry in [1], in series [2] and in [3] was “Active” throughout. In series [4], the Activity result is listed as “Non-Toxic”.
With `COc1cc2cc(Oc3ccc4ccc(=O)oc4c3)c(=O)oc2cc1O[C@@H]1O[C@H](CO)[C@@H](O)[C@H](O)[C@H]1O` [DAPHNORIN], the outcome in series [5], in series [6], in [7], in series [9], in [13] and in [14] was Active. The inhibition result in series [8], in series [10], in series [12], in [15] and in series [19] was “Active” each time. Moreover, the inhibition result in series [11], in series [16], in series [17] and in [18] was “inactive” throughout. In addition, in series [4], the Activity entry was “Non-Toxic”.
In the case of `O=c1ccc2ccc(Oc3cc4ccc(=O)oc4cc3O)cc2o1`, the inhibition entry in series [1], in [2] and in [3] was “Active” each time. Further, in [4], the Activity result was “Non-Toxic”.
Take `COc1cc2cc(Oc3ccc4ccc(=O)oc4c3)c(=O)oc2cc1O` [DAPHNORETIN]: the inhibition result in [1], in [2] and in series [3] was “Active” each time. In series [4], the Activity result is given as “Non-Toxic”.
